# Test results from patent publication US6716833B2, “Acetylenic α-amino acid-based sulfonamide hydroxamic acid tace inhibitors” (priority 1999, dated 2004).
# Molecular target: TNF-α converting enzyme (TACE) (Homo sapiens, UniProt P78536)
# Test: TACE inhibition (fluorescent peptidyl substrate)
# Type: biochemical
# Conditions: IC 50 nM (In Vitro Inhibition of TACE), Table 15
# TNF-α converting enzyme (TACE), sequence (P78536 215-824, species assumed): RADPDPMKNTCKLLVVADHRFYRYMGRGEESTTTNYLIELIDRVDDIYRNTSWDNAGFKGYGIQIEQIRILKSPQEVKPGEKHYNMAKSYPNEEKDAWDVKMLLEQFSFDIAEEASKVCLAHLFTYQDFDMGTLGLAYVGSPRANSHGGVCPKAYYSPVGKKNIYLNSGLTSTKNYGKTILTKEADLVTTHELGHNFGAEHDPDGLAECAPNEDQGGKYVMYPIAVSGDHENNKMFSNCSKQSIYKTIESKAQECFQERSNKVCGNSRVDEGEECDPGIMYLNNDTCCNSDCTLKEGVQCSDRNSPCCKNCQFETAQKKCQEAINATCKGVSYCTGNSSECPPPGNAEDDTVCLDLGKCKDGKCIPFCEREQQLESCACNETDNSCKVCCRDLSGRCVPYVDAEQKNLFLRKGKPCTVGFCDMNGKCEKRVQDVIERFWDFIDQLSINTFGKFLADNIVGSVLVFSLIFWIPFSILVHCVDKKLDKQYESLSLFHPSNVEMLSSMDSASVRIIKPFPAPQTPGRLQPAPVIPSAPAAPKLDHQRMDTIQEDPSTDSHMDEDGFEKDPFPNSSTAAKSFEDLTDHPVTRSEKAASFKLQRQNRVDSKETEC
row,Compound,IC50 [nM]
1,"CC#CCOc1ccc(S(=O)(=O)N[C@H](CCCCNC(=O)c2ccc(Br)cc2)C(=O)NO)cc1 [Example 351, 4-Bromo-N-[(5R)-5-({[4-(but-2-ynyloxy)phenyl]sulfonyl}amino)-6-(hydroxyamino)-6-oxohexyl]benzamide]",9.57
2,"CC#CCOc1ccc(S(=O)(=O)N[C@H](CCCCNC(=O)c2sccc2Cl)C(=O)NO)cc1 [Example 352, N-[(5R)-5-({[4-(But-2-ynyloxy)phenyl]sulfonyl}amino)-6-(hydroxyamino)-6-oxohexyl]-3-chlorothiophene-2-carboxamide]",4.96
3,"CC#CCOc1ccc(S(=O)(=O)N[C@H](CCCCNC(=O)c2ccc(Cl)cc2)C(=O)NO)cc1 [Example 353, N-[(5R)-5-({[4-(But-2-ynyloxy)phenyl]sulfonyl}amino)-6-(hydroxyamino)-6-oxohexyl]-4-chlorobenzamide]",6.1
4,"CC#CCOc1ccc(S(=O)(=O)N[C@H](CCCCNC(=O)C2CCCCC2)C(=O)NO)cc1 [Example 354, N-[(5R)-5-({[4-(But-2-ynyloxy)phenyl]sulfonyl}amino)-6-(hydroxyamino)-6-oxohexyl]cyclohexanecarboxamide]",5.89
5,"CC#CCOc1ccc(S(=O)(=O)N[C@H](CCCCNC(=O)Cc2ccc(Cl)c(Cl)c2)C(=O)NO)cc1 [Example 355, (2R)-2-({[4-(But-2-ynyloxy)phenyl]sulfonyl}amino)-6-{[2-(3,4-dichlorophenyl)acetyl]amino}-N-hydroxyhexanamide]",12.4
6,"CC#CCOc1ccc(S(=O)(=O)N[C@H](CCCCNC(=O)c2cc(C)oc2C)C(=O)NO)cc1 [Example 356, N-[(5R)-5-({[4-(But-2-ynyloxy)phenyl]sulfonyl}amino)-6-(hydroxyamino)-6-oxohexyl]-2,5-dimethyl-3-furamide]",9.36
7,"CC#CCOc1ccc(S(=O)(=O)N[C@H](CCCCNC(=O)c2c(C)noc2C)C(=O)NO)cc1 [Example 357, N-[(5R)-5-({[4-(But-2-ynyloxy)phenyl]sulfonyl}amino)-6-(hydroxyamino)-6-oxohexyl]-3,5-dimethylisoxazole-4-carboxamide]",14.1
8,"CC#CCOc1ccc(S(=O)(=O)N[C@H](CCCCNC(=O)CCc2ccccc2)C(=O)NO)cc1 [Example 358, (2R)-2-({[4-(But-2-ynyloxy)phenyl]sulfonyl}amino)-N-hydroxy-6-[(3-phenylpropanoyl)amino]hexanamide]",8.84
9,"CC#CCOc1ccc(S(=O)(=O)N[C@H](CCCCNC(=O)c2ccncc2)C(=O)NO)cc1 [Example 359, N-[(5R)-5-({[4-(But-2-ynyloxy)phenyl]sulfonyl}amino)-6-(hydroxyamino)-6-oxohexyl]isonicotinamide]",9.28
10,"CC#CCOc1ccc(S(=O)(=O)N[C@H](CCCCNC(=O)c2ccccc2OC)C(=O)NO)cc1 [Example 360, N-[(5R)-5-({[4-(But-2-ynyloxy)phenyl]sulfonyl}amino)-6-(hydroxyamino)-6-oxohexyl]-2-methoxybenzamide]",4.97
11,"CC#CCOc1ccc(S(=O)(=O)N[C@H](CCCCNC(=O)c2ccc(OC)cc2)C(=O)NO)cc1 [Example 361, N-[(5R)-5-({[4-(But-2-ynyloxy)phenyl]sulfonyl}amino)-6-(hydroxyamino)-6-oxohexyl]-4-methoxybenzamide]",6.32
12,"CC#CCOc1ccc(S(=O)(=O)N[C@H](CCCCNC(=O)Cc2ccc([N+](=O)[O-])cc2)C(=O)NO)cc1 [Example 362, (2R)-2-({[4-(But-2-ynyloxy)phenyl]sulfonyl}amino)-N-hydroxy-6-{[2-(4-nitrophenyl)acetyl]amino}hexanamide]",4.55
13,"CC#CCOc1ccc(S(=O)(=O)N[C@H](CCCCNC(=O)Cc2ccccc2)C(=O)NO)cc1 [Example 363, (2R)-2-({[4-(But-2-ynyloxy)phenyl]sulfonyl}amino)-N-hydroxy-6-[(2-phenylacetyl)amino]hexanamide]",3.39
14,"CC#CCOc1ccc(S(=O)(=O)N[C@H](CCCCNC(=O)c2cnc3ccccc3c2)C(=O)NO)cc1 [Example 364, N-[(5R)-5-({[4-(But-2-ynyloxy)phenyl]sulfonyl}amino)-6-(hydroxyamino)-6-oxohexyl]quinoline-3-carboxamide]",7.79
15,"CC#CCOc1ccc(S(=O)(=O)N[C@H](CCCCNC(=O)c2ccsc2)C(=O)NO)cc1 [Example 365, N-[(5R)-5-({[4-(But-2-ynyloxy)phenyl]sulfonyl}amino)-6-(hydroxyamino)-6-oxohexyl]thiophene-3-carboxamide]",14.6
16,"CC#CCOc1ccc(S(=O)(=O)N[C@H](CCCCNC(=O)/C=C/c2ccccc2)C(=O)NO)cc1 [Example 366, (E)-N-[(5R)-5-({[4-(But-2-ynyloxy)phenyl]sulfonyl}amino)-6-(hydroxyamino)-6-oxohexyl]-3-phenylprop-2-enamide]",106
17,"CC#CCOc1ccc(S(=O)(=O)N[C@H](CCCNC(=O)c2cccs2)C(=O)NO)cc1 [Example 368, (4R)-4-({[4-(but-2-ynyloxy)Phenyl]sulfonyl}amino)-5-(hydroxyamino)-5-oxopentylithiophene-2-carboxamide]",151
18,CC#CCOc1ccc(S(=O)(=O)N[C@H](CCCNC(=O)NCC)C(=O)NO)cc1 [Example 369],14.2
19,"CC#CCOc1ccc(S(=O)(=O)N[C@H](CCCNC(=O)Nc2ccccc2)C(=O)NO)cc1 [Example 370, (2R)-5-[(Anilinocarbonyl)amino]-2-({[4-(but-2-ynyloxy)phenyl]sulfonyl}amino)-N-hydroxypentanamide]",2.4
20,"CC#CCOc1ccc(S(=O)(=O)N[C@H](CCCNC(=O)OCCCCCCCC)C(=O)NO)cc1 [Example 371, Octyl(4R)-4-({[4-(but-2-ynyloxy)phenyl]sulfonyl}amino)-5-(hydroxyamino)-5-oxopentylcarbamate]",377
21,CC#CCOc1ccc(S(=O)(=O)N[C@H](CCCNC(=O)N(CC)CC)C(=O)NO)cc1 [Example 373],16.9
22,"CC#CCOc1ccc(S(=O)(=O)N[C@H](CCCNC(=O)N(C)c2ccccc2)C(=O)NO)cc1 [Example 374, (2R)-2-({[4-(but-2-ynyloxy)Phenyl]sulfonyl}amino)-N-hydroxy-5-{[(methylanilino)carbonyl]amino}pentanamide]",18.2
23,"CC#CCOc1ccc(S(=O)(=O)N[C@H](CCCNS(=O)(=O)c2cn(C)cn2)C(=O)NO)cc1 [Example 375, (2R)-2-({[4-(but-2-ynyloxy)Phenyl]sulfonyl}amino)-N-hydroxy-5-{[(1-methyl-1H-imidazol-4-yl)sulfonyl]amino}pentanamide]",24.6
24,"CC#CCOc1ccc(S(=O)(=O)N[C@H](CCCNC(=O)CN2CCOCC2)C(=O)NO)cc1 [Example 376, (2R)-2-({[4-(but-2-ynyloxy)Phenyl]sulfonyl}amino)-N-hydroxy-5-[(2-morpholin-4-ylacetyl)amino]pentanamide]",21.9
25,"CC#CCOc1ccc(S(=O)(=O)N[C@H](CCCNC(=O)CN2CCN(C)CC2)C(=O)NO)cc1 [Example 377, (2R)-2-({[4-(but-2-ynyloxy)Phenyl]sulfonyl}amino)-N-hydroxy-5-{[2-(4-methylpiperazin-1-yl)acetyl]amino}pentanamide]",26.5

# Same assay, conditions: read-out: IC 50 nM (In Vitro Inhibition of TACE); Table 15
row,Compound,IC50 [nM]
1,"CC#CCOc1ccc(S(=O)(=O)N[C@H](CCCNC(=O)Oc2ccc(OC)cc2)C(=O)NO)cc1 [Example 372, 4-Methoxyphenyl(4R)-4-({[4-(but-2-ynyloxy)phenyl]sulfonyl}amino)-5-(hydroxyamino)-5-oxopentylcarbamate]",8.4
